In patent publication US11459586B2, “Methods for increasing efficiency of nuclease-mediated gene editing in stem cells” (President and Fellows of Harvard College, priority 2016, dated 2022):

Legend:
[1] = tested on: human iPSC; experiment: mThy1 gene targeting in hiPSC co-transfected with DNA repair or viral inhibitor genes; assay type: cell-based; conditions: 0.5 μg plasmid overexpressing the DNA repair gene; 50 μM zVAD and 10 μM SB203580 post transfection (FIG. 9E)
Method: FIGS. 9A-G. Effects of chemical and genetic inhibitors on mThy1 gene targeting in hiPSC. FIG. 9A. Mouse Thy1 gene targeting scheme. Human iPSC were nucleofected with the mThy1 targeting vector system plasmids and analyzed by flow cytometry five days later. The percentages of mThy1^+hThy1^−, mThy1^+hThy1^+, and mThy1^−hThy1^− cells for each sample (gated on live single cells) are graphed. Lines mark the percentage values for the control sample. FIGS. 9B-9D. Human iPSC were nucleofected with: 2 μg mThy1 targeting vector; 0.5 μg Cas9 plasmid; and 1.5 μg of sgRNA plasmids. The sample was divided into multiple wells and cultured in plain media (mTeSR1+10 μM Y-27632 ROCK inhibitor) supplemented with the indicated chemical inhibitor for three days. 20 μM pifithrin α, 200 μM peptide V5 (VPMLK, SEQ ID NO:31), 200 μM peptide control (IPMIK, SEQ ID NO:32), 50 μM TEMPOL, or the indicated concentrations of SCR7 or L755507 were used. FIG. 9B, mThy1^+hThy1^− (bottom portion of each bar in each graph), mThy1^+hThy1^+ (top portion of each bar in each graph). FIG. 9C, mThy1^+hThy1^− (bottom portion of each bar in each graph), mThy1^+hThy1^+ (top portion of each bar in left and center graphs, middle portion of each bar in right graph), and mThy1^−hThy1^− (top portion of each bar in right graph). […]

[2] = tested on: human iPSC; experiment: gene targeting (mThy1, mCD147) in hiPSC transiently transfected with Cas9-IRES-anti-apoptotic gene plasmids; assay type: cell-based; conditions: Cas9 Bcl-2 sgRNA plasmids, transient transfection
Method: FIGS. 4A-D. Bcl-2 overexpression increases HR-mediated gene targeting in human iPSC when transiently transfected with the Cas9 nuclease. FIG. 4A. Mouse Thy1 gene targeting scheme. FIG. 4B. Plasmids were constructed to constitutively express Cas9 together with an anti-apoptotic gene (separated by an IRES) under the constitutively active EF1α promoter. Plain human iPSC were nucleofected with 0.5 μg of one of these Cas9 plasmids together with 2 μg of the mThy1 targeting vector and 1.5 μg of plasmids expressing the Thy1 Left, Right, both, or no sgRNAs (pUC19). Five days later, cells were analyzed by flow cytometry. FIG. 4C. Flow cytometry staining for mThy1 and hThy1 for the Cas9 only sample gated on live single cells; the percent of cells in each quadrant is indicated. […] FIG. 4D. Compiled gene editing frequencies. The percent of mThy1^+hThy1^− (bottom portion of each bar in the left, center, and right grafts), mThy1^+hThy1^+ (top portion of bars in the left and center graphs), and mThy1^−hThy1^− (top portion of bars in the right graph) cells is graphed for each indicated sample. Lines mark the percentages for the Cas9 only sample. Results are representative of two independent experiments.
FIGS. 8A-F. Wild type Bcl-2 improves gene targeting at various genomic loci across multiple hiPSC lines. FIG. 8A. Plasmids were constructed to constitutively express the Cas9 nuclease with a form of Bcl-2 (separated by an IRES), and a sgRNA. Three human iPSC lines were nucleofected with 2 μg of mThy1 or mCD147 targeting vector and 2 μg of “Cas9 sgRNA” or “Cas9 Bcl-2 sgRNA” expression plasmid. 5-9 days later, cells were analyzed by flow cytometry. FIG. 8B. Mouse Thy1 gene targeting scheme. FIG. 8C. Single amino acid mutations were generated for the Bcl-2 BH1 (G145A) or BH4 (Y28A) domains. Compiled gene editing frequencies for cells transfected with the Left, Right, or Both Thy1 sgRNAs. The percent of mThy1^+hThy1^− (bottom portion of each set of bars in each graph), mThy1^+hThy1^+ (top portion of left and center sets of bars in each graph and center portion of right set of bars in each graph), and mThy1^−hThy1^− (top portion of right set of bars in each graph) cells among the various samples is indicated. FIG. 8D. Mouse CD147 gene targeting scheme. FIG. 8E. Flow cytometry staining for mCD147 and hCD147 for retrovirally-derived PGP1 hiPSC transfected with “Cas9 sgRNA” or “Cas9 Bcl-2 sgRNA”. Samples are gated on live single cells; the percent of cells in each quadrant is indicated. FIG. 8F. Compiled gene editing frequencies for cells transfected with the Left, Right, or both CD147 sgRNAs. The percent of mCD147^+hCD147^− (bottom portion of each set of bars in each graph), mCD147^+hCD147^+ (top portion of left and center sets of bars in each graph and center portion of right set of bars in each graph), and mCD147^−hCD147^− (top portion of right set of bars in each graph) cells among the three hiPSC lines is indicated.
PCR reactions were done using polymerase sold under the trademark KAPA HIFI™ HotStart polymerase; primers and double-stranded DNA fragments sold under the trademark GBLOCKS® are from IDT. Plasmids were constructed using isothermal assembly, transformed into Stbl3 competent E. coli (Invitrogen), grown at 30° C., and verified by Sanger sequencing (Genewiz). Anti-apoptotic genes were obtained from previously published plasmids: Bcl-2 (Addgene plasmid #8793) and Bcl-xL (#8790) (Cheng et al., 2001); Bcl2A1 (#36973) (Pratt et al., 2012); and Mcl-1 (#21605) (Maurer et al., 2006). The dominant negative p53 sequence from Addgene plasmid #9058 (Hahn et al., 2002) was synthesized as a gBlock. These genes were cloned into the EF1α promoter-Cas9 nuclease plasmid after an IRES.
The U6 promoter-sgRNA (for each sgRNA sequence) was cloned into the EF1α promoter-Cas9 nuclease or EF1α promoter-Cas9 nuclease-IRES-Bcl-2 expression plasmids to form the “Cas9 only sgRNA” or “Cas9 Bcl-2 sgRNA” plasmids used in Examples 6 and 7. […]

[3] = tested on: hiPSC; experiment: toxicity of chemical inhibitors added to hiPSC culture after nucleofection
Method: Plasmids were purified using the plasmid DNA purification kit sold under the trademark Qiagen ENDOFREE® Plasmid Maxi kit and nucleofected into iPSC cells using the Lonza 4D-Nucleofector X unit (Buffer P3, Program CB-150). For each 20 μl nucleofection reaction, 0.2-0.5×106 iPSC were transfected with up to 4 μg of plasmid DNA. Post-nucleofection, iPSC were plated onto solubilized basement membrane matrix secreted by Engelbreth-Holm-Swarm (EHS) mouse sarcoma cells sold under the trademark […]®-coated wells containing feeder-free cell culture medium sold under the trademark MTESR1™ media with 10 μM Y-27632 plus other chemical inhibitors when noted. Later experiments included 50 μM zVAD-fmk (Bachem) for 1 day and 10 μM SB203580 (Biovision) for 4-5 days post transfection (see FIGS. 5, 6, 11, and 12). For FIG. 6 (ssODN transfection), 200 ng/ml recombinant B 18R (eBioscience), was also added to the culture for 5 days post transfection.
The following inhibitors were added to the hiPSC culture at the concentrations and time periods indicated in the Examples below. • 1. p53 or Bax inhibitors: cyclic pifithrin α (StemCell Technologies); pifithrin (Tocris); peptide V5, peptide control, iMAC1 and iMAC2 (EMD Millipore); N-acetyl cysteine and 4-hydroxy TEMPO (TEMPOL) (Sigma). • 2. […]

## BRCA1: principal HR mediator, overexpressed from plasmid
[1]
  mThy1 gene targeting efficiency: did not improve mThy1 gene targeting efficiency

## Y28A: Bcl-2 with Y28A mutation in the BH4 domain
[2]
  mThy1 gene targeting, wild type vs mutant Bcl-2: intermediate levels of gene targeting

## G145A: Bcl-2 with G145A mutation in the BH1 domain, prevents interaction with Bax
[2]
  mThy1 gene targeting, wild type vs mutant Bcl-2: intermediate levels of gene targeting

## C[C@H]1CCC/C=C/[C@@H]2C[C@H](O)C[C@H]2[C@H](O)/C=C/C(=O)O1 [Brefeldin A]
[3]; PGP1 hiPSC, 0.1 μM, data not shown
  toxicity to hiPSC: toxic

## CC(=O)N[C@@H](CS)C(=O)O [N-acetyl cysteine]
[3]; 1-5 mM
  toxicity to hiPSC: toxicity

## BRCA2: principal HR mediator, overexpressed from plasmid
[1]
  mThy1 gene targeting efficiency: did not improve mThy1 gene targeting efficiency
